We go through 2 compounds from PMC3631453 (ACS chemical biology, 2013).

One data set concerns MCF-7. Put plainly: Growth inhibition of ER-positive MCF-7 cells, 96h. To be noted: read-out: Growth inhibition IC50 after 96h MCF7, OHT ligands. In kind it is cell-based.
The subject of another data set is MDA-MB-231. Put plainly: Growth inhibition of ER-negative MDA-MB-231 cells, 96h. It is filed as cell-based. As to conditions: read-out: Growth inhibition IC50 after 96h MDA-MB-231, OHT ligands.
The subject of a further data set is U2OS cells. Put plainly: Cell density of transfected U2OS cells. It is filed as cell-based.
A further data set addresses ERβ (Homo sapiens, UniProt Q92731). Kind of data set: ER-regulated reporter gene. To be noted: U2OS, read-out: Hormonal activity (U2OS Cells) ERβ IA (intrinsic activity).
A further data set has as its target full-length human ERβ (Homo sapiens, UniProt Q92731). As to conditions: relative to E2 = 100%; cited from earlier work.

The structures appear in SMILES notation. Marks after values point to notes of the source that are not given here.

Chain of ERβ (Q92731 whole entry): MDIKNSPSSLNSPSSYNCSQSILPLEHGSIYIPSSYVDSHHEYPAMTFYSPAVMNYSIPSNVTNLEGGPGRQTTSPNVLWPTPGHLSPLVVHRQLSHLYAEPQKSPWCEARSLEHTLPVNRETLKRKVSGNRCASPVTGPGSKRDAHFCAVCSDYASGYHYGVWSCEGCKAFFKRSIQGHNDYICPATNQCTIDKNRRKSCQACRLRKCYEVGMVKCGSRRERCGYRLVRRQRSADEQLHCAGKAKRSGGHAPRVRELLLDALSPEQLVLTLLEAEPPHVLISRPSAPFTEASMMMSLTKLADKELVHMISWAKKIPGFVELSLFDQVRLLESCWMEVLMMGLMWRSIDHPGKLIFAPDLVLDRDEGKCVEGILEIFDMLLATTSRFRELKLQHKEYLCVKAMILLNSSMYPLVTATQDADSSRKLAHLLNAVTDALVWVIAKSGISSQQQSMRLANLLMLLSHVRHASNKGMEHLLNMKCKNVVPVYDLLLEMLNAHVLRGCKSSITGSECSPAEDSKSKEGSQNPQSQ
Chain of full-length human ERβ (Q92731 whole entry): as above

In the case of `CC/C(=C(\c1ccc(O)cc1)c1ccc(OCCN(C)C)cc1)c1ccccc1` [OHT, hydroxytamoxifen], in the data set on MCF-7, the IC50 came out at 150 nM. Also, the IC50 in the data set on MDA-MB-231 was found to be 4590 nM. Besides, in the data set on U2OS cells (1μM), the “Hormonal activity (U2OS Cells) ERα CD (cell density)” value is 110% and the “Hormonal activity (U2OS Cells) ERβ CD (cell density)” value turned out to be 92%.
As to `CC/C(=C(/CC)c1ccc(O)cc1)c1ccc(O)cc1` [DES, diethylstilbestrol], the Emax at ERβ was 111%. Besides, in the data set on U2OS cells (10nM), the “Hormonal activity (U2OS Cells) ERα CD (cell density)” value was determined as 103% and the “Hormonal activity (U2OS Cells) ERβ CD (cell density)” value is listed as 90%. In addition, on full-length human ERβ, the “RBA for ERβ” value is on record as 278 ± 54 ^f %.
